Data: US20080279961A1, “TELOMERE TARGETING AGENTS AS STEM CELLS DIRECTED TREATMENTS” (priority 2007, published 2008)
“Also recorded” adds a separate entry of the source.

What was measured:
UXF1138L xenografts [1] = test: tumor growth inhibition of subcutaneous xenografts; type: in vivo, nude mice
[2] = tolerability in xenograft studies (body weight, deaths, MTD)
Description: For the first in vivo experiment, tumor fragments (5×5 mm) from untreated donor animals were implanted subcutaneously into both flanks of recipient mice. Treatment was initiated 6 days after transplantation (=day 0, median tumor volume of ˜70 mm^3). Animals were randomized into groups following Lindner's randomization tables and treated by oral gavage with 5 mg/kg/d RHPS4 or vehicle (phosphate buffered saline) respectively (n=5-8 animals per group). […] Drug administration was repeated twice weekly for 8 times (Q3dx8) after randomization. Tumor growth was followed twice weekly by serial caliper measurement, body weights were recorded, and tumor volumes were calculated using the standard formula (length×width^2)/2, where length is the largest dimension and width the smallest dimension perpendicular to the length (Alley et al., 2004; Geran et al., 1972). The median relative tumor volume was plotted against time. Relative tumor volumes were calculated for each single tumor by dividing the tumor volume on day X by that on day 0 (time of randomization). Growth curves were analyzed in terms of tumor inhibition (treated/control, T/C, calculated as median tumor weight of treated divided by median tumor weight of control animals times 100). Statistical data analysis was done using non-parametrical Wilcoxon Mann-Whitney statistics. Median relative tumor volumes of each treatment group were compared with those of the vehicle control groups. P values less than 0.05 were considered statistically significant. SPSS 2000, SYSTAT version 10 software was used.
To conduct combination treatment with Paclitaxel, after 4 serial propagations of RHPS4 treated tumor tissue in nude mice (FIG. 1), RHPS4 was combined with Paclitaxel. Single agent Paclitaxel was given at 20 mg/kg i.v. on days 1 and 15. In combination with RHPS4 (given at 5 mg/kg p.o. twice weekly), only a single dose of Paclitaxel (20 mg/kg i.v.) was administered on day 1. Tumor growth parameters and body weight were assessed as described above.

R1 prostate cancer cells = test: side population analysis; type: cell-based
Text: In one embodiment of the invention, cancer stem cells have shorter telomeres than other cancer cells (FIG. 7). Side population analysis was done to distinguish between cancer stem cells in R1 prostate cancer cells and […]. A primitive CD34^low/neg stem cell population has been defined in normal bone marrow, which has the unique capacity to efflux lipophilic dyes such as Hoechst 33342 as a result of high levels of expression of P-glycoprotein (MDRa/ABCB1) transporter and BCRP (breast cancer resistance protein, ABCG2). […] R1 is the parental prostate cancer cell line with a SP of 0.36% of cells of the total population (100%). […] Subclones of the R1 chemosensitive prostate cancer cell line that are resistant to the clinically used cytotoxic agents mitoxantrone and docetaxel, show a much expanded SP of 45% and 83% of cells respectively. In fact docetaxel resistant R1 cells are almost all stem cell like cells.

UXF1138L xenografts [3] = conditions: mouse, in vivo; cited from earlier work

CC(=O)O[C@H]1C(=O)[C@@]2(C)[C@H]([C@H](OC(=O)c3ccccc3)[C@]3(O)C[C@H](OC(=O)[C@H](O)[C@@H](NC(=O)c4ccccc4)c4ccccc4)C(C)=C1C3(C)C)[C@]1(OC(C)=O)CO[C@@H]1C[C@@H]2O [Paclitaxel, reference compound]
opt. Test/Control [%] (UXF1138L xenografts [1]; Passage #4, RHPS4 5 mg/kg p.o. twice weekly, Paclitaxel 20 mg/kg i.v.): 8% | CR, complete remission (UXF1138L xenografts [1]; Passage #4, tumors per group): 2/12 | P, progression (UXF1138L xenografts [1]; Passage #4, tumors per group): 3/12 | PR, partial regression (UXF1138L xenografts [1]; Passage #4, tumors per group): 7/12 | antitumor response in words (UXF1138L xenografts [1]; Passage #4 UXF1138L xenografts): has single agent activity; also recorded: transient remissions; also recorded: Minor remissions | Deaths [n/n], drug related death per mice per group ([2]; Passage #4): 0/6 | BWC, maximal median body weight change ([2]; mouse, in vivo): +6%

COc1ccc2c3c([nH]c2c1)[C@H](CC(C)C)N1C(=O)[C@H](CCC(=O)OC(C)(C)C)NC(=O)[C@@H]1C3 [Ko143]
effect on side population (SP) (R1 prostate cancer cells): abolishes the SP

O=C1c2c(O)ccc(O)c2C(=O)c2c(NCCNCCO)ccc(NCCNCCO)c21 [mitoxantrone]
response of UXF1138L xenograft to standard chemotherapy (UXF1138L xenografts [3]): resistant

COc1cccc2c1C(=O)c1c(O)c3c(c(O)c1C2=O)C[C@@](O)(C(=O)CO)C[C@@H]3O[C@H]1C[C@H](N)[C@H](O)[C@H](C)O1 [doxorubicin]
response of UXF1138L xenograft to standard chemotherapy (UXF1138L xenografts [3]): resistant
